Results taken from paper PMC12643509, “High-throughput screens identify genotype-specific therapeutics for channelopathies” (JCI Insight, 2025).
Several values for one entry are separate records, joined by “and”; a condition that tells them apart may be missing. Equal entries are not always repeated.

Key:
wild-type KV11.1 = wild-type KV11.1 (Homo sapiens, UniProt Q12809)
WT Kv11.1 = WT Kv11.1 (Homo sapiens, UniProt Q12809); settings: 24 hour and washout, individual wells
WT Kv11.1, sequence (Q12809 whole entry): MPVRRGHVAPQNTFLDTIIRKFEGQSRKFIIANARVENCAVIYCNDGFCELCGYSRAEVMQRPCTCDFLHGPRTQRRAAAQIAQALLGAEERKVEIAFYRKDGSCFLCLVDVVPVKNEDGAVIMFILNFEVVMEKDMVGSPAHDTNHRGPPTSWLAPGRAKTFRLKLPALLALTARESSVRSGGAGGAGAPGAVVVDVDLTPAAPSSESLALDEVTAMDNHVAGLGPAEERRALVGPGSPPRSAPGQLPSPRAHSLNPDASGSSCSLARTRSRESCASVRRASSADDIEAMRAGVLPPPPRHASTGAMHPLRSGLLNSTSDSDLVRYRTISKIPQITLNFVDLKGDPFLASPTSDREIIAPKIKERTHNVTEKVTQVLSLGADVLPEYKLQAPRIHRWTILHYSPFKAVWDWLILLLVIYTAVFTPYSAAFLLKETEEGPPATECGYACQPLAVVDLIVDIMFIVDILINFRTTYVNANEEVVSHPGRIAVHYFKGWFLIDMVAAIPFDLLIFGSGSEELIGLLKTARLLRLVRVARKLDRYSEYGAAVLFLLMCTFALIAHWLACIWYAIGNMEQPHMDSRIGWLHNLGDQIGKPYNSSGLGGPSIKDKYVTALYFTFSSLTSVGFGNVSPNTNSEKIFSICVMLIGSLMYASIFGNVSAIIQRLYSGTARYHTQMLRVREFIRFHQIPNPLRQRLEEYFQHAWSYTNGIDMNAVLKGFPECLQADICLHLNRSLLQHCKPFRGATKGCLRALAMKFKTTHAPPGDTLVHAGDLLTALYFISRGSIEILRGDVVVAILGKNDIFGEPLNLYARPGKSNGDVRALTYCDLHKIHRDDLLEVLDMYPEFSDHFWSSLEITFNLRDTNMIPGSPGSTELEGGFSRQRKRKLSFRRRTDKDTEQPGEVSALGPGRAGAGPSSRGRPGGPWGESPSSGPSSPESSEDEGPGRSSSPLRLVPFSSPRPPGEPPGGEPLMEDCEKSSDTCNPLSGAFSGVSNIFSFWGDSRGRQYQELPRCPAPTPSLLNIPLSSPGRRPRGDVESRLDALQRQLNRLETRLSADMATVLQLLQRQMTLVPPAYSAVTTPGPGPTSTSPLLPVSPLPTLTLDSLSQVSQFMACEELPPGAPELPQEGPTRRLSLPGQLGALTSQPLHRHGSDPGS
From the text: plot of hits tested for 24-h our WT toxicity. Each point repres ents the med ia n robust Z score
after 24-hour treatm ent and washout in cells ex pressing WT.
robust Z scores be low bas eli ne function).
second ary screens w ere perform ed i n triplicate us ing 1 0 µ M drug treatme nt to assess: 1)
acute channel block, measur ed after a 15-minute inc ubati on with the drug present duri ng
recordi ngs; and 2) t oxicit y in W T channels, assesse d af t er a 24-hour drug ex posure fol low ed
(C) Tl+-measurements after 24-hour treatment and washout in HEK cells

wild-type KV11.1, sequence (Q12809 whole entry): as above

Structure (SMILES) | inhibition of WT channels (wild-type KV11.1) | Changes in WT function (thallium flux) (WT Kv11.1)
CCc1c(C)[nH]c2c1C(=O)C(CN1CCOCC1)CC2 (stereo not drawn) [Moban, moban] | did not inhibit WT channels | –
OC[C@H]1O[C@H](O[C@]2(CCl)O[C@H](CCl)[C@@H](O)[C@@H]2O)[C@H](O)[C@@H](O)[C@H]1Cl [Sucralose, sucralose] | did not inhibit WT channels | 0.1161 and 0.1317 and 0.1214
